# Reference: patent US10471076B2, “Compositions and methods to treat vision disorders” (YouHealth Biotech, Limited, priority 2014, dated 2019)
# Experiments:
# [1] = target: T1, αA-crystallin (Y118D) aggregates (Homo sapiens, UniProt P02489, Y118D); assay: Serial live-cell imaging, single-particle tracking of aggregates; format: cell-based; conditions: human lens progenitor cells; 40 mM sterol in 1% DMSO for 4 h
# T1 construct: expressed in transfected cells; host or cells: human lens progenitor cells, G418-selected
# T1 sequence (P02489 1-173 Y118D): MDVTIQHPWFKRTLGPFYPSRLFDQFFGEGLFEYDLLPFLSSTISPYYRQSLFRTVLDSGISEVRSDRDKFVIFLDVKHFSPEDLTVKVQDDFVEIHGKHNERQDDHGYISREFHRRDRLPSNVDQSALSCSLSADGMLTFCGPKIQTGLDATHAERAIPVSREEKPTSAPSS
# Procedure: Live-cell imaging. Human lens progenitor cells were transfected with plasmids containing αA-crystallin (Y118D) mutant. After a 24 h transfection period, the cells with stable expression of αA-crystallin (Y118D) mutant were screen by incubation in culture medium containing 0.8 mg ml^−1 G418 for 7 days. Then the obtained cells were seeded onto glass bottom cell culture dishes (In Vitro Scientific) and treated with 1% DMSO, 40 mM cholesterol in 1% DMSO or 40 mM lanosterol in 1% DMSO for 4 h. Fresh culture medium was added, and the cells were analysed by serial live-cell imaging. Live-cell images were viewed with an Olympus IX81 microscope and captured with CellSens Dimension soft-ware (Olympus). Quantitative analysis of the size of aggregates was performed by measuring the fluorescence intensity of p62-positive aggregates using single-par-tide tracking in live-cell imaging. The live-cell imaging was conducted using three biological replicates with 1-8 repetitions each.
# [2] = system: cataract-causing mutant crystallin proteins; assay: Intracellular aggregation of mutant crystallins in HLEB-3 cells; format: cell-based, human; conditions: then 12 h
# Procedure: (§1) FIG. 9A, FIG. 9B, and FIG. 9C show inhibition of crystallin mutant aggregation by wild-type LSS and lanosterol in HLEB-3 cells (FIG. 9A) or HeLa cells (FIG. 9B). Cells co-transfected with LSS and crystallin mutant constructs were cultured for 24 h before assaying for aggregates. The rescue experiments were performed by addition of 40 […] μM sterols (lanosterol or cholesterol) to the cell culture medium for 2 h, the sterol medium was then replaced with fresh culture medium and the cells were cultured for a further 12 h. The percentage of cells with crystallin aggregates were calculated from ten randomly selected viewing fields. The values of the wild-type LSS group, mutant group, or mutant plus lanosterol group were calculated. […] After transfection for 4 h and incubation in fresh culture medium for another 24 h, the cells were lysed and centrifuged to separate supernatant and insoluble fractions. LSS and crystallin fusion proteins were detected by antibodies against Flag and GFP, respectively. Red arrows indicate higher crystalline content in the soluble fraction versus in the insoluble fraction in cells containing the WT-LSS.
# (§2) Cells were transfected with various crystallin constructs for 4 h and cultured for an additional 24 h in fresh culture medium. Then the cells were treated with 10, 20 and 40 μM lanosterol in 1% (HLEB-3 cells) or 2% DMSO (HeLa cells) for 2 h and cultured for another 12 h. Cells treated with 1% (HLEB-3 cells) or 2% DMSO (HeLa cells) were used as the controls. Formation of intracellular aggregates of various crystallin proteins was visualized by fluorescence of GFP (green) and the nuclei were stained with Hoechst 33342 (blue). Typical intracellular aggregates are indicated by arrows.
# (§3) The impact of LSS and lanosterol on intracellular crystallin aggregation were evaluated in single-blinded observer studies. Experiments have been repeated at least three times. P values were calculated using Student's t-tests. Fluorescence microscopy. […]
# [3] = system: cataract-causing mutant crystallin proteins; assay: Intracellular aggregation of mutant crystallins in HeLa cells; format: cell-based, human; conditions: then 12 h
# Procedure: as §1, §2, §3
smiles,measurement,setting,value
"CC(C)=CCC[C@@H](C)[C@H]1CC[C@@]2(C)C3=C(CC[C@]12C)[C@@]1(C)CC[C@H](O)C(C)(C)[C@@H]1CC3 [lanosterol, 3β-Hydroxy-8,24-lanostadiene; 8,24-Lanostadien-3β-ol]",effect on αA-crystallin (Y118D) aggregates in live cells,[1],could effectively diminish crystallin aggregates
same,percentage of cells with crystallin aggregates versus control group (rescue),"[2]; HLEB-3 cells co-transfected with LSS and crystallin mutant, 40 μM sterols 2 h, lanosterol P<1×10^−4, cholesterol P>0.1",significantly lower
same,intracellular aggregation caused by cataract-causing mutant crystallin proteins,"[2]; HLEB-3 cells, 10, 20 and 40 μM lanosterol in 1% DMSO for 2 h, concentration-dependent",significantly reduced the intracellular aggregation
same,percentage of cells with crystallin aggregates versus control group (rescue),"[3]; HeLa cells co-transfected with LSS and crystallin mutant, 40 μM sterols 2 h, lanosterol P<1×10^−4, cholesterol P>0.1",significantly lower
same,intracellular aggregation caused by cataract-causing mutant crystallin proteins,"[3]; HeLa cells, 10, 20 and 40 μM lanosterol in 2% DMSO for 2 h, concentration-dependent",significantly reduced the intracellular aggregation
